# Results as given in PubChem BioAssay (NCI).
#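 Following 48 hours of exposure in 96-well plates, responses at five concentrations were used to interpolate endpoints linearly. GI50 marks 50% less growth. TGI is the concentration that stops growth completely.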
# Columns and labels:
# Experiment in all cases: NCI-60 cell line screen, 48 h
# 786-0 renal = test system: 786-0 renal
# A498 renal = test system: A498 renal
# A549 NSCLC = test system: A549 NSCLC
# ACHN renal = test system: ACHN renal
# CAKI-1 renal = test system: CAKI-1 renal
# CCRF-CEM leukemia = test system: CCRF-CEM leukemia
# COLO 205 colon = test system: COLO 205 colon
# DLD-1 colon = test system: DLD-1 colon
# DMS 114 small cell lung = test system: DMS 114 small cell lung
# DMS 273 small cell lung = test system: DMS 273 small cell lung
# EKVX NSCLC = test system: EKVX NSCLC
# HCC-2998 colon = test system: HCC-2998 colon
# HCT-116 colon = test system: HCT-116 colon
# HCT-15 colon = test system: HCT-15 colon
# HL-60(TB) leukemia = test system: HL-60(TB) leukemia
# HOP-18 NSCLC = test system: HOP-18 NSCLC
# HOP-62 NSCLC = test system: HOP-62 NSCLC
# HOP-92 NSCLC = test system: HOP-92 NSCLC
# HT29 colon = test system: HT29 colon
# IGROV1 ovarian = test system: IGROV1 ovarian
# K-562 leukemia = test system: K-562 leukemia
# KM12 colon = test system: KM12 colon
# KM20L2 colon = test system: KM20L2 colon
# LOX IMVI melanoma = test system: LOX IMVI melanoma
# LXFL 529 NSCLC = test system: LXFL 529 NSCLC
# M14 melanoma = test system: M14 melanoma
# M19-MEL melanoma = test system: M19-MEL melanoma
# MALME-3M melanoma = test system: MALME-3M melanoma
# MOLT-4 leukemia = test system: MOLT-4 leukemia
# NCI-H226 lung = test system: NCI-H226 lung
# NCI-H23 lung = test system: NCI-H23 lung
# NCI-H460 lung = test system: NCI-H460 lung
# NCI-H522 lung = test system: NCI-H522 lung
# OVCAR-3 ovarian = test system: OVCAR-3 ovarian
# OVCAR-4 ovarian = test system: OVCAR-4 ovarian
# OVCAR-5 ovarian = test system: OVCAR-5 ovarian
# OVCAR-8 ovarian = test system: OVCAR-8 ovarian
# RPMI-8226 leukemia = test system: RPMI-8226 leukemia
# SF-268 CNS = test system: SF-268 CNS
# SF-295 CNS = test system: SF-295 CNS
# SF-539 CNS = test system: SF-539 CNS
# SK-MEL-2 melanoma = test system: SK-MEL-2 melanoma
# SK-MEL-28 melanoma = test system: SK-MEL-28 melanoma
# SK-MEL-5 melanoma = test system: SK-MEL-5 melanoma
# SK-OV-3 ovarian = test system: SK-OV-3 ovarian
# SN12C renal = test system: SN12C renal
# SNB-19 CNS = test system: SNB-19 CNS
# SNB-75 CNS = test system: SNB-75 CNS
# SNB-78 CNS = test system: SNB-78 CNS
# SR leukemia = test system: SR leukemia
# SW-620 colon = test system: SW-620 colon
# TK-10 renal = test system: TK-10 renal
# U251 CNS = test system: U251 CNS
# UACC-257 melanoma = test system: UACC-257 melanoma
# UACC-62 melanoma = test system: UACC-62 melanoma
# UO-31 renal = test system: UO-31 renal
# RXF 393 renal = test system: RXF 393 renal
compound,measurement,setting,value
Cn1cc2ccccc2c1-c1nc(F)nc(Oc2ccc3c(c2)CC[C@@H]2C3CC[C@@]3(C)C2CC[C@@H]3O)n1 (some centres undefined),TGI,786-0 renal,26.4 µM
same,TGI,A498 renal,36 µM
same,TGI,A549 NSCLC,54.4 µM
same,TGI,ACHN renal,35.4 µM
same,TGI,CAKI-1 renal,16.3 µM
same,TGI,CCRF-CEM leukemia,> 100 µM
same,TGI,COLO 205 colon,41.8 µM
same,TGI,DLD-1 colon,14.6 µM
same,GI50,DMS 114 small cell lung,6.42 µM
same,TGI,DMS 114 small cell lung,22 µM
same,TGI,DMS 273 small cell lung,> 58.5 µM
same,TGI,EKVX NSCLC,37.3 µM
same,TGI,HCC-2998 colon,33.5 µM
same,TGI,HCT-116 colon,36 µM
same,TGI,HCT-15 colon,12.2 µM
same,TGI,HL-60(TB) leukemia,21 µM
same,TGI,HOP-18 NSCLC,34.2 µM
same,TGI,HOP-62 NSCLC,27.9 µM
same,TGI,HOP-92 NSCLC,14.7 µM
same,TGI,HT29 colon,35.8 µM
same,TGI,IGROV1 ovarian,15.3 µM
same,TGI,K-562 leukemia,> 87 µM
same,TGI,KM12 colon,19.5 µM
same,TGI,KM20L2 colon,36.6 µM
same,TGI,LOX IMVI melanoma,32.6 µM
same,TGI,LXFL 529 NSCLC,8.89 µM
same,TGI,M14 melanoma,20.4 µM
same,TGI,M19-MEL melanoma,> 56.5 µM
same,TGI,MALME-3M melanoma,35.5 µM
same,TGI,MOLT-4 leukemia,> 56.9 µM
same,TGI,NCI-H226 lung,38.4 µM
same,TGI,NCI-H23 lung,27.6 µM
same,TGI,NCI-H460 lung,38.1 µM
same,TGI,NCI-H522 lung,12.7 µM
same,TGI,OVCAR-3 ovarian,21.8 µM
same,TGI,OVCAR-4 ovarian,16.4 µM
same,TGI,OVCAR-5 ovarian,33.9 µM
same,TGI,OVCAR-8 ovarian,19.7 µM
same,TGI,RPMI-8226 leukemia,21.7 µM
same,TGI,SF-268 CNS,28.7 µM
same,TGI,SF-295 CNS,63.5 µM
same,TGI,SF-539 CNS,29.1 µM
same,TGI,SK-MEL-2 melanoma,10.2 µM
same,TGI,SK-MEL-28 melanoma,27.1 µM
same,TGI,SK-MEL-5 melanoma,35.6 µM
same,TGI,SK-OV-3 ovarian,43.7 µM
same,TGI,SN12C renal,28.1 µM
same,TGI,SNB-19 CNS,35.5 µM
same,TGI,SNB-75 CNS,39.2 µM
same,TGI,SNB-78 CNS,> 61.4 µM
same,TGI,SR leukemia,21 µM
same,TGI,SW-620 colon,17.6 µM
same,TGI,TK-10 renal,18.3 µM
same,TGI,U251 CNS,13.2 µM
same,TGI,UACC-257 melanoma,45.8 µM
same,TGI,UACC-62 melanoma,32.7 µM
same,TGI,UO-31 renal,50.9 µM
CCSc1nc(-c2ccc(OC)cc2)c(C#N)c(=O)n1C1OCC(OC(C)=O)C(OC(C)=O)C1OC(C)=O (centres undefined),TGI,786-0 renal,> 100 µM
same,TGI,A498 renal,> 100 µM
same,TGI,A549 NSCLC,> 100 µM
same,TGI,ACHN renal,> 100 µM
same,TGI,CAKI-1 renal,> 100 µM
same,TGI,COLO 205 colon,> 100 µM
same,TGI,DLD-1 colon,> 100 µM
same,TGI,DMS 114 small cell lung,> 100 µM
same,TGI,DMS 273 small cell lung,> 100 µM
same,TGI,EKVX NSCLC,> 100 µM
same,TGI,HCC-2998 colon,> 100 µM
same,TGI,HCT-116 colon,> 100 µM
same,TGI,HCT-15 colon,> 100 µM
same,TGI,HOP-18 NSCLC,> 100 µM
same,TGI,HOP-62 NSCLC,> 100 µM
same,TGI,HOP-92 NSCLC,> 100 µM
same,TGI,HT29 colon,> 100 µM
same,TGI,IGROV1 ovarian,> 100 µM
same,TGI,K-562 leukemia,> 100 µM
same,TGI,KM12 colon,> 100 µM
same,TGI,KM20L2 colon,> 100 µM
same,TGI,LXFL 529 NSCLC,> 100 µM
same,TGI,M14 melanoma,> 100 µM
same,TGI,M19-MEL melanoma,> 100 µM
same,TGI,MALME-3M melanoma,> 100 µM
same,TGI,MOLT-4 leukemia,> 100 µM
same,TGI,NCI-H226 lung,> 100 µM
same,TGI,NCI-H23 lung,> 100 µM
same,TGI,NCI-H460 lung,> 100 µM
same,TGI,NCI-H522 lung,> 100 µM
same,TGI,OVCAR-4 ovarian,> 100 µM
same,TGI,OVCAR-5 ovarian,> 100 µM
same,TGI,RPMI-8226 leukemia,> 100 µM
same,TGI,RXF 393 renal,> 100 µM
same,TGI,SF-268 CNS,> 100 µM
same,TGI,SF-295 CNS,> 100 µM
same,TGI,SF-539 CNS,> 100 µM
same,TGI,SK-MEL-2 melanoma,> 100 µM
same,TGI,SK-MEL-28 melanoma,> 100 µM
same,TGI,SK-MEL-5 melanoma,> 100 µM
same,TGI,SK-OV-3 ovarian,> 100 µM
same,TGI,SN12C renal,> 100 µM
same,TGI,SNB-19 CNS,> 100 µM
same,TGI,SNB-75 CNS,> 100 µM
same,TGI,SNB-78 CNS,> 100 µM
same,TGI,SR leukemia,> 100 µM
same,TGI,SW-620 colon,> 100 µM
same,TGI,TK-10 renal,> 100 µM
same,TGI,U251 CNS,> 100 µM
same,TGI,UACC-257 melanoma,> 100 µM
same,TGI,UACC-62 melanoma,> 100 µM
same,TGI,UO-31 renal,> 100 µM
